This is an account of results in US6806359B1, “Hormone receptor compositions and methods” (The Salk Institute for Biological Studies, priority 1986, dated 2004).

For one test, the target named is T1, rTR alpha (Rattus norvegicus, UniProt P63059).
T1 construct: made in house; host or cells: rabbit reticulocyte lysate (SP6 transcripts of rbeA12B)
T1 sequence (P63059 1-410 isoform P63059-2): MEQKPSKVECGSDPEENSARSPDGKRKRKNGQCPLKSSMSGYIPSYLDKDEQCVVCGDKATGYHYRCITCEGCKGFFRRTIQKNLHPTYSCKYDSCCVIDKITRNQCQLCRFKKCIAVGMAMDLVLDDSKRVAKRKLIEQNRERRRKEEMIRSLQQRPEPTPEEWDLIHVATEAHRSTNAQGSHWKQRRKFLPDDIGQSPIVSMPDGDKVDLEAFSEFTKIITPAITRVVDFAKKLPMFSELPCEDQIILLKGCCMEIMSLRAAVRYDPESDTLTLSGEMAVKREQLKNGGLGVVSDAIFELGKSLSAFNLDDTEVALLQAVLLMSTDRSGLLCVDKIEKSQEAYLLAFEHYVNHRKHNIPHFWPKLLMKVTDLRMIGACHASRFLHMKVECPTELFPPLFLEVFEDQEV
Description: ^125I-T3 binding to in vitro translated rTR alpha (Scatchard and competition). As to conditions: excess competitor. From the text: In vitro translation and thyroid hormone binding of rTR alpha FIG. 69 rTR alpha was transcribed in vitro and translated in a rabbit reticulocyte lysate. […] Lane 1, no added RNA; lane 2, rbeA12, which contains the entire 5′ untranslated region; lane 3, rbeA12B, which contains only 97 bp of 5′ untranslated sequence. […] Samples from rbeA12B programmed lysates were mixed with increasing concentrations of unlabeled thyroid hormone or analogs to compete with labeled hormone. […] In vitro transcription and translation and hormone binding were performed as described (22, 23).
23. For in vitro transcription, the entire EcoRI insert of rbeA12 was cloned into pGEM1 (Promega Biotec). […] For thyroid hormone binding, transcriptions were performed with SP6 polymerase and 5 to 10 micrograms of rbeA12B linearized with SstI. […] Thyroid hormone binding for both the Scatchard and competition analyses were determined in the same manner, except that unlabeled protein was used for the Scatchard analysis. […] Specific hormone binding was determined by adding a 1000-fold excess of unlabeled hormone and assayed by counting radioactivity eluting in the excluded volume from a Sephadex G-25 fine (Pharmacia) 0.9-by 4.0-cm. column.

A further test has as its target T2, hMR (Homo sapiens, UniProt P08235).
T2 sequence (P08235 1-984): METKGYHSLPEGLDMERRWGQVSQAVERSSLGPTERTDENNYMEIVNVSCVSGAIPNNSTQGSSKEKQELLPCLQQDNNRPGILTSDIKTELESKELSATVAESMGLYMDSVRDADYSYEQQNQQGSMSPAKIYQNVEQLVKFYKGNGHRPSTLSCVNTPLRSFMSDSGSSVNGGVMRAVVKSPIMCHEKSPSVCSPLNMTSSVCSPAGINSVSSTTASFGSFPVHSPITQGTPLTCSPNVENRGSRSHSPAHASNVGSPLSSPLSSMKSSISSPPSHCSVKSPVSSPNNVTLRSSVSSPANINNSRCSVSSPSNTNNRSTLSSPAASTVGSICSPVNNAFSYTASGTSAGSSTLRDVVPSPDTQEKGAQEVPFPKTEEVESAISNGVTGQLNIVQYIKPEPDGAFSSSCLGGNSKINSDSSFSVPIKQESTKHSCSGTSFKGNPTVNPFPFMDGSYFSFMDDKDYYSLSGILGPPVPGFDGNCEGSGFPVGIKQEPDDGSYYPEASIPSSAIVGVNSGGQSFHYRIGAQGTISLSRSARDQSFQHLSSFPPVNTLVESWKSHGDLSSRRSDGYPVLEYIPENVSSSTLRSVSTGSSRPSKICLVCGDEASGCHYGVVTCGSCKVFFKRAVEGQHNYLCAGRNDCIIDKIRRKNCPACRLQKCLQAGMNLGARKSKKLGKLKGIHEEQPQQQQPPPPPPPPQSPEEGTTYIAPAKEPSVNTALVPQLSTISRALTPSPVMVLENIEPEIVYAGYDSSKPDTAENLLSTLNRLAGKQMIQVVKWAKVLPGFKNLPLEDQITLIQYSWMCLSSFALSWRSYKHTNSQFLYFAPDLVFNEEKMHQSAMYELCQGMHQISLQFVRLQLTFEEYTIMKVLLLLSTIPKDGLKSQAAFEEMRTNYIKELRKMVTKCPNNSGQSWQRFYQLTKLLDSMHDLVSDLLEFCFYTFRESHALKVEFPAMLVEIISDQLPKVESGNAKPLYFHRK
The test is described as follows: [^3H]aldosterone binding and steroid competition in extracts of pRShMR-transfected COS cells. Further details: expressed in transfected cells; host or cells: COS cells transfected with pRShMR (DEAE-dextran). As to conditions: 1-, 10-, or 100-fold molar excess of unlabeled steroid. Here is the method:
Ligand specificity of the hMR protein was determined by preparing cytosol extracts from COS cells transfected with pRShMR. Two days after transfection, cells were harvested, and hormone binding was measured by a dextran-treated charcoal assay. […] This provided a measure of the relative affinity of each of these steroids for hMR.
Steroid-binding properties of expressed hMR. FIG. 38 Structure of pRShMR, the hMR expression plasmid (41). […] Each point was assayed in triplicate with 100 micrograms of extract protein in a 200-microliter incubation at 0° C. for 2.5 hours. […] The results of two independent trials representative of these competition experiments are shown. Cold competitor was present in 1-, 10-, or 100-fold molar excess. […] Subconfluent COS cells were transfected by the DEAE-dextran method (42) with 10 micrograms of pRShMR per dish. Cells were maintained for 2 days in DMEM (Dulbecco's modification of Eagle's minimum essential medium) with 5 percent charcoal-treated fetal calf serum, then harvested in […] tris-HCl. (pH 7.8), 10 nM NaCl, 1 mM EDTA, 10 mM Na2MoO4, 5 mM dithiothreitol, antipain (5 microgram/ml), leupeptin (5 microgram/ml), and 500 microM phenylmethylsulfonyl fluoride. After centrifugation at 15,000×g for 10 minutes, extracts were adjusted to 100 mM NaCl and 5 percent glycerol before binding. […] After centrifugation at 15,000×g for 2 minutes at 40C, tritium in supernatant was quantified by liquid scintillation spectrophotometry.

For `C[C@]12CC[C@@H]3c4ccc(O)cc4CC[C@H]3[C@@H]1CC[C@@H]2O` [oestradiol], the “competition for T3 binding to rTR alpha by excess compound” value at rTR alpha is on record as “no competition”. Besides, at hMR, the “relative affinity for hMR by competition with 5 nM [^3H]aldosterone (in words)” value was “competed very poorly”.
